The target in the first experiment is T1, human DP2 (Homo sapiens, UniProt Q9Y5Y4).
T1 construct: expressed in transfected cells; membranes prepared
T1 sequence (Q9Y5Y4 1-395): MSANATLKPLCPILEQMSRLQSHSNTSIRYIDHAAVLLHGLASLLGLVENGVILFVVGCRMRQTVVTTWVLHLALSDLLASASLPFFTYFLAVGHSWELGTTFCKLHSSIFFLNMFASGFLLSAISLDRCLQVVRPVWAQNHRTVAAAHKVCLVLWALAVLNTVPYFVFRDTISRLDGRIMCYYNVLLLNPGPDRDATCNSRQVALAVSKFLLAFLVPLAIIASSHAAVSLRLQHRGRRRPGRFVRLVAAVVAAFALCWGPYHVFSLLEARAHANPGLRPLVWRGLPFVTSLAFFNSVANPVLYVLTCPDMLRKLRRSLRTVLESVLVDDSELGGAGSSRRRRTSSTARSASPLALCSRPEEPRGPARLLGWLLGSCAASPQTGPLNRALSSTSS
The experiment is described as follows: DP-2 binding inhibition assay (3H-PGD2, membranes of DP2-expressing K562 cells). As to conditions: 0.1% BSA, read-out: EC50 (nM) 0.1% BSA. In outline:
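Displacement of 3H-PGD2 was measured by filtration and scintillation counting after 60 min at room temperature, using membranes of DP2-transfected K562 cells in 0.1% BSA, 1% HSA or 4% HSA.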
Usually EC50 stands for the concentration at which the effect is half-maximal. As to `Cc1nc2ccc(NC(=O)c3ccc(Oc4cc5c(cc4C#N)C(C(=O)O)CCO5)cc3)cc2s1` (stereo not drawn) [Example 189, 6-cyano-7-(4-(2-methylbenzo[d]thiazol-6-ylcarbamoyl)phenoxy) chroman-4-carboxylic acid], the EC50 was determined as 43.3 nM. Regarding `Cc1nsc2ccc(NC(=O)c3ccc(Oc4cc5c(cc4C#N)C(C(=O)O)CCO5)cc3)cc12` (stereo not drawn) [Example 190, 6-cyano-7-(4-(3-methylbenzo[d]isothiazol-5-ylcarbamoyl)phenoxy) chroman-4-carboxylic acid], the EC50 turned out to be 49.3 nM. With `N#Cc1cc2c(cc1Oc1ccc(C(=O)Nc3ccc4nc(C(F)(F)F)[nH]c4c3)cc1)OCCC2C(=O)O` (stereo not drawn) [Example 191, 6-cyano-7-(4-(2-(trifluoromethyl)-1H-benzo[d]imidazol-6-ylcarbamoyl)phenoxy) chroman-4-carboxylic acid], the EC50 amounted to 41.5 nM. With `N#Cc1cc2c(cc1Oc1ccc(C(=O)Nc3ccc4[nH]ncc4c3)cc1)OCCC2C(=O)O` (stereo not drawn) [Example 192, 7-(4-(1H-indazol-5-ylcarbamoyl)phenoxy)-6-cyanochroman-4-carboxylic acid], the EC50 is 492 nM. As for `N#Cc1cc2c(cc1Oc1ccc(C(=O)Nc3ccc4cn[nH]c4c3)cc1)OCCC2C(=O)O` (stereo not drawn) [Example 193, 7-(4-(1H-indazol-6-ylcarbamoyl)phenoxy)-6-cyanochroman-4-carboxylic acid], the EC50 was found to be 36.7 nM. The same measure, in the same setting: the result for `N#Cc1cc2c(cc1Oc1ccc(C(=O)Nc3nc4ccccc4s3)cc1)OCCC2C(=O)O` (stereo not drawn) [Example 194, 7-(4-(benzo[d]thiazol-2-ylcarbamoyl)phenoxy)-6-cyanochroman-4-carboxylic acid] reads 10.7 nM; that for `N#Cc1cc2c(cc1Oc1ccc(C(=O)Nc3nc4ccc(F)cc4s3)cc1)OCCC2C(=O)O` (stereo not drawn) [Example 195, 6-cyano-7-(4-(6-fluorobenzo[d]thiazol-2-ylcarbamoyl)phenoxy) chroman-4-carboxylic acid], 12.9 nM.

Turning to `N#Cc1cc2c(cc1Oc1ccc(C(=O)Nc3nc4ccc(Cl)cc4s3)cc1)OCCC2C(=O)O` (stereo not drawn) [Example 196], the EC50 was found to be 11 nM.

Consider `COc1ccc2nc(NC(=O)c3ccc(Oc4cc5c(cc4C#N)C(C(=O)O)CCO5)cc3)sc2c1` (stereo not drawn) [Example 197, 6-cyano-7-(4-(6-methoxybenzo[d]thiazol-2-ylcarbamoyl)phenoxy) chroman-4-carboxylic acid], for which the EC50 worked out at 9.3 nM. As to `Cc1noc(C)c1CCNC(=O)c1ccc(Oc2cc3c(cc2C#N)C(C(=O)O)CCO3)cc1` (stereo not drawn) [Example 198, 6-cyano-7-(4-(2-(3,5-dimethylisoxazol-4-yl)ethylcarbamoyl)phenoxy)chroman-4-carboxylic acid], the EC50 stood at 1240 nM. Turning to `N#Cc1cc2c(cc1Oc1ccc(C(=O)Nc3nc4c(Cl)cccc4s3)cc1)OCCC2C(=O)O` (stereo not drawn) [Example 199], the EC50 turned out to be 10.8 nM. In the case of `Cc1cc2nc(NC(=O)c3ccc(Oc4cc5c(cc4C#N)C(C(=O)O)CCO5)cc3)sc2cc1C` (stereo not drawn) [Example 200, 6-cyano-7-(4-(5,6-dimethylbenzo[d]thiazol-2-ylcarbamoyl)phenoxy) chroman-4-carboxylic acid], the EC50 worked out at 7.6 nM. Consider `N#Cc1cc2c(cc1Oc1ccc(C(=O)Nc3nc4ccc(C(F)(F)F)cc4s3)cc1)OCCC2C(=O)O` (stereo not drawn) [Example 201, 6-cyano-7-(4-(6-(trifluoromethyl)benzo[d]thiazol-2-ylcarbamoyl)phenoxy)chroman-4-carboxylic acid], for which the EC50 stood at 5.1 nM. For the compound `N#Cc1cc2c(cc1Oc1ccc(C(=O)Nc3nc4c(F)cc(F)cc4s3)cc1)OCCC2C(=O)O` (stereo not drawn) [Example 202, 6-cyano-7-(4-(4,6-difluorobenzo[d]thiazol-2-ylcarbamoyl)phenoxy) chroman-4-carboxylic acid], the EC50 is 24.5 nM. Regarding `N#Cc1cc2c(cc1Oc1ccc(C(=O)Nc3nc4ccccc4o3)cc1)OCCC2C(=O)O` (stereo not drawn) [Example 203, 7-(4-(benzo[d]oxazol-2-ylcarbamoyl)phenoxy)-6-cyanochroman-4-carboxylic acid], the EC50 worked out at 69 nM.

Staying with this experiment, now noted: 1% HSA, read-out: EC50 (nM) 1% HSA.
Regarding `N#Cc1cc2c(cc1Oc1ccc(C(=O)Nc3ccc4nc(C(F)(F)F)[nH]c4c3)cc1)OCCC2C(=O)O` (stereo not drawn) [Example 191, 6-cyano-7-(4-(2-(trifluoromethyl)-1H-benzo[d]imidazol-6-ylcarbamoyl)phenoxy) chroman-4-carboxylic acid], the EC50 was 137 nM. For the compound `N#Cc1cc2c(cc1Oc1ccc(C(=O)Nc3nc4ccccc4s3)cc1)OCCC2C(=O)O` (stereo not drawn) [Example 194, 7-(4-(benzo[d]thiazol-2-ylcarbamoyl)phenoxy)-6-cyanochroman-4-carboxylic acid], the EC50 was 1240 nM. For `N#Cc1cc2c(cc1Oc1ccc(C(=O)Nc3nc4ccc(F)cc4s3)cc1)OCCC2C(=O)O` (stereo not drawn) [Example 195, 6-cyano-7-(4-(6-fluorobenzo[d]thiazol-2-ylcarbamoyl)phenoxy) chroman-4-carboxylic acid], the EC50 is 194 nM. Take `N#Cc1cc2c(cc1Oc1ccc(C(=O)Nc3nc4ccc(Cl)cc4s3)cc1)OCCC2C(=O)O` (stereo not drawn) [Example 196]: the EC50 amounted to 352 nM. In the case of `COc1ccc2nc(NC(=O)c3ccc(Oc4cc5c(cc4C#N)C(C(=O)O)CCO5)cc3)sc2c1` (stereo not drawn) [Example 197, 6-cyano-7-(4-(6-methoxybenzo[d]thiazol-2-ylcarbamoyl)phenoxy) chroman-4-carboxylic acid], the EC50 was 146 nM.

The experiment is the same for the next values; noted with them: 4% HSA, read-out: EC50 (nM) 4% HSA.
As to `N#Cc1cc2c(cc1Oc1ccc(C(=O)Nc3nc4ccc(C(F)(F)F)cc4s3)cc1)OCCC2C(=O)O` (stereo not drawn) [Example 201, 6-cyano-7-(4-(6-(trifluoromethyl)benzo[d]thiazol-2-ylcarbamoyl)phenoxy)chroman-4-carboxylic acid], the EC50 came out at 355 nM. On to `N#Cc1cc2c(cc1Oc1ccc(C(=O)Nc3nnc(-c4ccc(Cl)cc4)s3)cc1)OCCC2C(=O)O` (stereo not drawn) [Example 204, 7-(4-(5-(4-chlorophenyl)-1,3,4-thiadiazol-2-ylcarbamoyl)phenoxy)-6-cyanochroman-4-carboxylic acid], for which the EC50 worked out at 3440 nM. On the same count and under the same terms, under `Cc1ccc(-c2csc(NC(=O)c3ccc(Oc4cc5c(cc4C#N)C(C(=O)O)CCO5)cc3)n2)cc1` (stereo not drawn) [Example 205, 6-cyano-7-(4-(4-p-tolylthiazol-2-ylcarbamoyl)phenoxy) chroman-4-carboxylic acid] stands 96.2 nM. Still for that read-out and setting: under `O=C(Nc1nc2ccc(Cl)cc2s1)c1ccc(Oc2cc3c(cc2Cl)C(C(=O)O)CCO3)cc1` (stereo not drawn) [Example 207, 6-chloro-7-(4-(6-chlorobenzo[d]thiazol-2-ylcarbamoyl)phenoxy) chroman-4-carboxylic acid] stands 105 nM. For `O=C(Nc1nc2cc(Cl)ccc2o1)c1ccc(Oc2cc3c(cc2Cl)C(C(=O)O)CCO3)cc1` (stereo not drawn) [Example 208, 6-chloro-7-(4-(5-chlorobenzo[d]oxazol-2-ylcarbamoyl)phenoxy) chroman-4-carboxylic acid], the EC50 amounted to 736 nM. Take `O=C(Nc1ccc(-c2ccc(Cl)cc2)nn1)c1ccc(Oc2cc3c(cc2Cl)C(C(=O)O)CCO3)cc1` (stereo not drawn) [Example 209, 6-chloro-7-(4-(6-(4-chlorophenyl)pyridazin-3-ylcarbamoyl)phenoxy) chroman-4-carboxylic acid]: the EC50 was determined as 207 nM. For `O=C(NC1CCN(c2cccc(C(F)(F)F)n2)CC1)c1ccc(Oc2cc3c(cc2Cl)C(C(=O)O)CCO3)cc1` (stereo not drawn) [Example 211], the EC50 amounted to 421 nM. With `O=C(NCCc1cccn1-c1ccc(C(F)(F)F)cc1)c1ccc(Oc2cc3c(cc2Cl)C(C(=O)O)CCO3)cc1` (stereo not drawn) [Example 212, 6-chloro-7-(4-(2-(1-(4-(trifluoromethyl)phenyl)-1H-pyrrol-2-yl)ethylcarbamoyl)phenoxy) chroman-4-carboxylic acid], the EC50 is 3010 nM. `CCOc1ncccc1CCNC(=O)c1ccc(Oc2cc3c(cc2Cl)C(C(=O)O)CCO3)cc1` (stereo not drawn) [Example 213, 6-chloro-7-(4-(2-(2-ethoxypyridin-3-yl)ethylcarbamoyl)phenoxy) chroman-4-carboxylic acid]: the EC50 amounted to 188 nM. Regarding `COc1ccc(-c2cccc(CCNC(=O)c3ccc(Oc4cc5c(cc4Cl)C(C(=O)O)CCO5)cc3)n2)cc1` (stereo not drawn) [Example 214, 6-chloro-7-(4-(2-(6-(4-methoxyphenyl)pyridin-2-yl)ethylcarbamoyl)phenoxy)chroman-4-carboxylic acid], the EC50 turned out to be 1350 nM. Consider `COc1ccc(-c2cccc(CCNC(=O)c3ccc(Oc4cc5c(cc4Cl)C(C(=O)O)CCO5)cc3)n2)cn1` (stereo not drawn) [Example 215, 6-chloro-7-(4-(2-(6′-methoxy-2,3′-bipyridin-6-yl)ethylcarbamoyl)phenoxy)chroman-4-carboxylic acid], for which the EC50 was 1600 nM. For `O=C(NCCn1ccc(Cl)cc1=O)c1ccc(Oc2cc3c(cc2Cl)C(C(=O)O)CCO3)cc1` (stereo not drawn) [Example 216, 6-chloro-7-(4-(2-(4-chloro-2-oxopyridin-1(2H)-yl)ethylcarbamoyl)phenoxy)chroman-4-carboxylic acid], the EC50 was 2230 nM. Take `COc1ccc(CCNC(=O)c2ccc(Oc3cc4c(cc3Cl)C(C(=O)O)CCO4)cc2)cn1` (stereo not drawn) [Example 217, 6-chloro-7-(4-(2-(6-methoxypyridin-3-yl)ethylcarbamoyl)phenoxy) chroman-4-carboxylic acid]: the EC50 was 1370 nM. For the compound `COc1cccc(CCNC(=O)c2ccc(Oc3cc4c(cc3Cl)C(C(=O)O)CCO4)cc2)n1` (stereo not drawn) [Example 218, 6-chloro-7-(4-(2-(6-methoxypyridin-2-yl)ethylcarbamoyl)phenoxy) chroman-4-carboxylic acid], the 50% effective concentration (EC50) was 404 nM. As for `O=C(NCCn1ccc(-c2ccc(Cl)cc2)n1)c1ccc(Oc2cc3c(cc2Cl)C(C(=O)O)CCO3)cc1` (stereo not drawn) [Example 219, 6-chloro-7-(4-(2-(3-(4-chlorophenyl)-1H-pyrazol-1-yl)ethylcarbamoyl)phenoxy) chroman-4-carboxylic acid], the EC50 stood at 1370 nM. For the compound `COc1ncc(CCNC(=O)c2ccc(Oc3cc4c(cc3Cl)C(C(=O)O)CCO4)cc2)c(OC)n1` (stereo not drawn) [Example 220, 6-chloro-7-(4-(2-(2,4-dimethoxypyrimidin-5-yl)ethylcarbamoyl)phenoxy) chroman-4-carboxylic acid], the EC50 came to 379 nM. Regarding `O=C(NCCc1cccc(-c2ccccc2Cl)n1)c1ccc(Oc2cc3c(cc2Cl)C(C(=O)O)CCO3)cc1` (stereo not drawn) [Example 221, 6-chloro-7-(4-(2-(6-(2-chlorophenyl)pyridin-2-yl)ethylcarbamoyl)phenoxy) chroman-4-carboxylic acid], the EC50 was found to be 962 nM. The same measure, in the same setting: under `CC(C)(C)c1csc(CCNC(=O)c2ccc(Oc3cc4c(cc3Cl)C(C(=O)O)CCO4)cc2)n1` (stereo not drawn) [Example 222, 7-(4-(2-(4-tert-butylthiazol-2-yl)ethylcarbamoyl)phenoxy)-6-chlorochroman-4-carboxylic acid] stands 1070 nM; under `O=C(NCCc1cccnc1C1CC1)c1ccc(Oc2cc3c(cc2Cl)C(C(=O)O)CCO3)cc1` (stereo not drawn) [Example 223, 6-chloro-7-(4-(2-(2-cyclopropylpyridin-3-yl)ethylcarbamoyl)phenoxy) chroman-4-carboxylic acid], 210 nM.

(Values after patent US8785445B2 (Array BioPharma Inc., priority 2008, dated 2014).)
